Results taken from patent US20230085307A1, “PYRIDAZINONE COMPOUND AND HERBICIDE” (NISSAN CHEMICAL CORPORATION, priority 2019, published 2023).

Assays:
persian speedwell [1] = assay: Test Example 5: herbicidal effect by foliage application, plastic box (Table 20, symbol R); type: in vivo, Persian speedwell (Veronica persica); settings: foliage application, 320 g/ha, evaluated three weeks after application
Method in brief: (§1)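 Foliar spray test: emulsion formulation diluted in water to a set application rate, sprayed onto 14-day-old plants raised in diluvial soil at 25° C to 30° C under glass. Both herbicidal effect and crop effect rated visually three weeks later.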

green foxtail [2] = assay: Test Example 4: herbicidal effect by soil treatment (Table 19, symbol G); type: in vivo, green foxtail (Setaria viridis); settings: amount of applied herbicide 320 g/ha
Method in brief: (§2)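 Step 1: sow seeds in sterilized diluvial soil, cover ~1.5 cm. Step 2: spray diluted emulsion onto soil surface at predetermined rate. Step 3: greenhouse, 25–30° C, three weeks. Step 4: grade effect on each plant by earlier criteria.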

redroot pigweed [3] = assay: Test Example 4: herbicidal effect by soil treatment (Table 19, symbol N); type: in vivo, redroot pigweed (Amaranthus retroflexus); settings: amount of applied herbicide 320 g/ha
Method in brief: as §2

persian speedwell [4] = assay: Test Example 4: herbicidal effect by soil treatment (Table 19, symbol R); type: in vivo, Persian speedwell (Veronica persica); settings: amount of applied herbicide 320 g/ha
Method in brief: as §2

Italian ryegrass [5] = assay: Test Example 5: herbicidal effect by foliage application, plastic box (Table 20, symbol K); type: in vivo, Italian ryegrass (Lolium multiflorum); settings: foliage application, 320 g/ha, evaluated three weeks after application
Method in brief: as §1

Japanese bulrush = assay: Test Example 1: herbicidal activity, application before weed generation under submerged conditions (Table 16, symbol B); type: in vivo, Japanese bulrush (Schoenoplectus juncoides); settings: 320 g/ha applied herbicide
Method in brief: (§3)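 Alluvial soil was flooded to 4 cm depth, weed seeds were sown mixed and 2.5-leaf rice seedlings were transplanted. On sowing day, the compound's emulsion, diluted in water to a set dose, was applied to the water surface. Plants grew at 25–30 °C and were scored 0–5 after three weeks.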

oval-leafed pondweed = assay: Test Example 1: herbicidal activity, application before weed generation under submerged conditions (Table 16, symbol C); type: in vivo, oval-leafed pondweed (Monochoria vaginalis); settings: 320 g/ha applied herbicide
Method in brief: as §3

windgrass [6] = assay: Test Example 4: herbicidal effect by soil treatment (Table 19, symbol L); type: in vivo, windgrass (Apera spica-venti); settings: amount of applied herbicide 320 g/ha
Method in brief: as §2

southern crabgrass [7] = assay: Test Example 4: herbicidal effect by soil treatment (Table 19, symbol F); type: in vivo, southern crabgrass (Digitaria ciliaris); settings: amount of applied herbicide 320 g/ha
Method in brief: as §2

barnyard grass [8] = assay: Test Example 3: herbicidal effect by foliage application, Wagner pot (Table 18, symbol H); type: in vivo, barnyard grass (Echinochloa crus-galli); settings: amount of applied herbicide 320 g/ha
Method in brief: (§4)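 Plants were sown in alluvial soil held under 0.1–0.5 cm standing water and grown 14 days in a greenhouse at 25–30 °C. An emulsifiable formulation, water-diluted to the set dose, was then sprayed onto the foliage, and effects were scored three weeks later using previously defined criteria.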

southern crabgrass [9] = assay: Test Example 5: herbicidal effect by foliage application, plastic box (Table 20, symbol F); type: in vivo, southern crabgrass (Digitaria ciliaris); settings: foliage application, 320 g/ha, evaluated three weeks after application
Method in brief: as §1

green foxtail [10] = assay: Test Example 5: herbicidal effect by foliage application, plastic box (Table 20, symbol G); type: in vivo, green foxtail (Setaria viridis); settings: foliage application, 320 g/ha, evaluated three weeks after application
Method in brief: as §1

chickweed [11] = assay: Test Example 4: herbicidal effect by soil treatment (Table 19, symbol P); type: in vivo, common chickweed (Stellaria media); settings: amount of applied herbicide 320 g/ha
Method in brief: as §2

rice flat sedge = assay: Test Example 3: herbicidal effect by foliage application, Wagner pot (Table 18, symbol E); type: in vivo, rice flat sedge (Cyperus iria); settings: amount of applied herbicide 320 g/ha
Method in brief: as §4

Italian ryegrass [12] = assay: Test Example 4: herbicidal effect by soil treatment (Table 19, symbol K); type: in vivo, Italian ryegrass (Lolium multiflorum); settings: amount of applied herbicide 320 g/ha
Method in brief: as §2

Chinese sprangletop = assay: Test Example 3: herbicidal effect by foliage application, Wagner pot (Table 18, symbol D); type: in vivo, chinese sprangletop (Leptochloa chinensis); settings: amount of applied herbicide 320 g/ha
Method in brief: as §4

barnyard grass [13] = assay: Test Example 5: herbicidal effect by foliage application, plastic box (Table 20, symbol H); type: in vivo, barnyard grass (Echinochloa crus-galli); settings: foliage application, 320 g/ha, evaluated three weeks after application
Method in brief: as §1

blackgrass [14] = assay: Test Example 4: herbicidal effect by soil treatment (Table 19, symbol J); type: in vivo, blackgrass (Alopecurus myosuroides); settings: amount of applied herbicide 320 g/ha
Method in brief: as §2

windgrass [15] = assay: Test Example 5: herbicidal effect by foliage application, plastic box (Table 20, symbol L); type: in vivo, windgrass (Apera spica-venti); settings: foliage application, 320 g/ha, evaluated three weeks after application
Method in brief: as §1

late watergrass = assay: Test Example 1: herbicidal activity, application before weed generation under submerged conditions (Table 16, symbol A); type: in vivo, late watergrass (Echinochloa oryzicola); settings: 320 g/ha applied herbicide
Method in brief: as §3

redroot pigweed [16] = assay: Test Example 5: herbicidal effect by foliage application, plastic box (Table 20, symbol N); type: in vivo, redroot pigweed (Amaranthus retroflexus); settings: foliage application, 320 g/ha, evaluated three weeks after application
Method in brief: as §1

blackgrass [17] = assay: Test Example 5: herbicidal effect by foliage application, plastic box (Table 20, symbol J); type: in vivo, blackgrass (Alopecurus myosuroides); settings: foliage application, 320 g/ha, evaluated three weeks after application
Method in brief: as §1

chickweed [18] = assay: Test Example 5: herbicidal effect by foliage application, plastic box (Table 20, symbol P); type: in vivo, common chickweed (Stellaria media); settings: foliage application, 320 g/ha, evaluated three weeks after application
Method in brief: as §1

lambsquarters [19] = assay: Test Example 5: herbicidal effect by foliage application, plastic box (Table 20, symbol O); type: in vivo, lambsquarters (Chenopodium album); settings: foliage application, 320 g/ha, evaluated three weeks after application
Method in brief: as §1

barnyard grass [20] = assay: Test Example 4: herbicidal effect by soil treatment (Table 19, symbol H); type: in vivo, barnyard grass (Echinochloa crus-galli); settings: amount of applied herbicide 320 g/ha
Method in brief: as §2

velvetleaf [21] = assay: Test Example 4: herbicidal effect by soil treatment (Table 19, symbol M); type: in vivo, velvetleaf (Abutilon theophrasti); settings: amount of applied herbicide 320 g/ha
Method in brief: as §2

velvetleaf [22] = assay: Test Example 5: herbicidal effect by foliage application, plastic box (Table 20, symbol M); type: in vivo, velvetleaf (Abutilon theophrasti); settings: foliage application, 320 g/ha, evaluated three weeks after application
Method in brief: as §1

lambsquarters [23] = assay: Test Example 4: herbicidal effect by soil treatment (Table 19, symbol O); type: in vivo, lambsquarters (Chenopodium album); settings: amount of applied herbicide 320 g/ha
Method in brief: as §2

wild oat [24] = assay: Test Example 5: herbicidal effect by foliage application, plastic box (Table 20, symbol I); type: in vivo, wild oat (Avena fatua); settings: foliage application, 320 g/ha, evaluated three weeks after application
Method in brief: as §1

wild oat [25] = assay: Test Example 4: herbicidal effect by soil treatment (Table 19, symbol I); type: in vivo, wild oat (Avena fatua); settings: amount of applied herbicide 320 g/ha
Method in brief: as §2

| Compound | G: green foxtail, herbicidal effect rating (green foxtail [2]) | N: redroot pigweed, herbicidal effect rating (redroot pigweed [3]) | R: persian speedwell, herbicidal effect rating (persian speedwell [4]) | Herbicidal effect on B: Japanese bulrush (grade 0-5) (Japanese bulrush) | Herbicidal effect on C: oval-leafed pondweed (grade 0-5) (oval-leafed pondweed) | L: windgrass, herbicidal effect rating (windgrass [6]) | F: southern crabgrass, herbicidal effect rating (southern crabgrass [7]) | herbicidal effect on H: barnyard grass (barnyard grass [8]) | P: chickweed, herbicidal effect rating (chickweed [11]) | herbicidal effect on E: rice flat sedge (rice flat sedge) | K: Italian ryegrass, herbicidal effect rating (Italian ryegrass [12]) | herbicidal effect on D: Chinese sprangletop (Chinese sprangletop) | J: blackgrass, herbicidal effect rating (blackgrass [14]) | Herbicidal effect on A: late watergrass (grade 0-5) (late watergrass) | H: barnyard grass, herbicidal effect rating (barnyard grass [20]) | M: velvetleaf, herbicidal effect rating (velvetleaf [21]) | O: lambsquarters, herbicidal effect rating (lambsquarters [23]) | I: wild oat, herbicidal effect rating (wild oat [25]) | further results |
| --- | --- | --- | --- | --- | --- | --- | --- | --- | --- | --- | --- | --- | --- | --- | --- | --- | --- | --- | --- |
| COc1ccccc1-c1sc2ccc(I)cc2c1-c1c(O)c(C)nn(C)c1=O [2-130] | 0 (Herbicidal rate of 5% or less (almost no effect)) | 2 (Herbicidal rate of 20% or more and less than 40%) | 0 (Herbicidal rate of 5% or less (almost no effect)) | 3 (Herbicidal rate of 40% or more and less than 70%) | 0 (Herbicidal rate of 5% or less (almost no effect)) | 0 (Herbicidal rate of 5% or less (almost no effect)) | 0 (Herbicidal rate of 5% or less (almost no effect)) | 3 (Herbicidal rate of 40% or more and less than 70%) | 0 (Herbicidal rate of 5% or less (almost no effect)) | 4 (Herbicidal rate of 70% or more and less than 90%) | 0 (Herbicidal rate of 5% or less (almost no effect)) | 0 (Herbicidal rate of 5% or less (almost no effect)) | 0 (Herbicidal rate of 5% or less (almost no effect)) | 0 (Herbicidal rate of 5% or less (almost no effect)) | 0 (Herbicidal rate of 5% or less (almost no effect)) | 0 (Herbicidal rate of 5% or less (almost no effect)) | 3 (Herbicidal rate of 40% or more and less than 70%) | 0 (Herbicidal rate of 5% or less (almost no effect)) | herbicidal effect on R: persian speedwell (persian speedwell [1]): 3 (Herbicidal rate of 40% or more and less than 70%); herbicidal effect on K: Italian ryegrass (Italian ryegrass [5]): 0 (Herbicidal rate of 5% or less (almost no effect)); herbicidal effect on F: southern crabgrass (southern crabgrass [9]): 0 (Herbicidal rate of 5% or less (almost no effect)); herbicidal effect on G: green foxtail (green foxtail [10]): 0 (Herbicidal rate of 5% or less (almost no effect)); herbicidal effect on H: barnyard grass (barnyard grass [13]): 0 (Herbicidal rate of 5% or less (almost no effect)); herbicidal effect on L: windgrass (windgrass [15]): 0 (Herbicidal rate of 5% or less (almost no effect)); herbicidal effect on N: redroot pigweed (redroot pigweed [16]): 5 (Herbicidal rate of 90% or more (almost completely withered)); herbicidal effect on J: blackgrass (blackgrass [17]): 0 (Herbicidal rate of 5% or less (almost no effect)); herbicidal effect on P: chickweed (chickweed [18]): 5 (Herbicidal rate of 90% or more (almost completely withered)); herbicidal effect on O: lambsquarters (lambsquarters [19]): 2 (Herbicidal rate of 20% or more and less than 40%); herbicidal effect on M: velvetleaf (velvetleaf [22]): 3 (Herbicidal rate of 40% or more and less than 70%); herbicidal effect on I: wild oat (wild oat [24]): 0 (Herbicidal rate of 5% or less (almost no effect)) |
| COc1ccccc1-c1sc2ccc(C#C[Si](C)(C)C)cc2c1-c1c(O)c(C)nn(C)c1=O [2-188] | 0 (Herbicidal rate of 5% or less (almost no effect)) | 5 (Herbicidal rate of 90% or more (almost completely withered)) | 0 (Herbicidal rate of 5% or less (almost no effect)) | 0 (Herbicidal rate of 5% or less (almost no effect)) | 0 (Herbicidal rate of 5% or less (almost no effect)) | 0 (Herbicidal rate of 5% or less (almost no effect)) | 0 (Herbicidal rate of 5% or less (almost no effect)) | 4 (Herbicidal rate of 70% or more and less than 90%) | 0 (Herbicidal rate of 5% or less (almost no effect)) | 0 (Herbicidal rate of 5% or less (almost no effect)) | 0 (Herbicidal rate of 5% or less (almost no effect)) | 3 (Herbicidal rate of 40% or more and less than 70%) | 0 (Herbicidal rate of 5% or less (almost no effect)) | 4 (Herbicidal rate of 70% or more and less than 90%) | 0 (Herbicidal rate of 5% or less (almost no effect)) | 0 (Herbicidal rate of 5% or less (almost no effect)) | 3 (Herbicidal rate of 40% or more and less than 70%) | 0 (Herbicidal rate of 5% or less (almost no effect)) | herbicidal effect on R: persian speedwell (criteria 0-5) (persian speedwell [1]): 1 (Herbicidal rate of 5% or more and less than 20%); herbicidal effect on K: Italian ryegrass (criteria 0-5) (Italian ryegrass [5]): 4 (Herbicidal rate of 70% or more and less than 90%); herbicidal effect on F: southern crabgrass (criteria 0-5) (southern crabgrass [9]): 3 (Herbicidal rate of 40% or more and less than 70%); herbicidal effect on G: green foxtail (criteria 0-5) (green foxtail [10]): 0 (Herbicidal rate of 5% or less (almost no effect)); herbicidal effect on H: barnyard grass (criteria 0-5) (barnyard grass [13]): 1 (Herbicidal rate of 5% or more and less than 20%); herbicidal effect on L: windgrass (criteria 0-5) (windgrass [15]): 4 (Herbicidal rate of 70% or more and less than 90%); herbicidal effect on N: redroot pigweed (criteria 0-5) (redroot pigweed [16]): 3 (Herbicidal rate of 40% or more and less than 70%); herbicidal effect on J: blackgrass (criteria 0-5) (blackgrass [17]): 4 (Herbicidal rate of 70% or more and less than 90%); herbicidal effect on P: chickweed (criteria 0-5) (chickweed [18]): 5 (Herbicidal rate of 90% or more (almost completely withered)); herbicidal effect on O: lambsquarters (criteria 0-5) (lambsquarters [19]): 2 (Herbicidal rate of 20% or more and less than 40%); herbicidal effect on M: velvetleaf (criteria 0-5) (velvetleaf [22]): 0 (Herbicidal rate of 5% or less (almost no effect)); herbicidal effect on I: wild oat (criteria 0-5) (wild oat [24]): 0 (Herbicidal rate of 5% or less (almost no effect)) |
